Source: US4876280A, “Arylcyclohexane and arylcyclohexene analogs of mevalonolactone derivatives and their use” (Sandoz Pharm. Corp., priority 1988, dated 1989)
Like-named read-outs stand apart in the source and are kept apart here.

Experiments:
[1] = biological target: T1, HMG-CoA reductase (Rattus norvegicus, UniProt P51639); test: Test A: In Vitro Microsomal Assay of HMG-CoA Reductase Inhibition; format: biochemical; conditions: rat liver microsomes, read-out: IC50 (50% inhibition of HMG-CoA reductase activity)
T1 construct: rat liver microsomal suspensions, freshly prepared from male Sprague-Dawley rats; from tissue; host or cells: liver microsomes of male Sprague-Dawley rats
T1 sequence (P51639 1-887): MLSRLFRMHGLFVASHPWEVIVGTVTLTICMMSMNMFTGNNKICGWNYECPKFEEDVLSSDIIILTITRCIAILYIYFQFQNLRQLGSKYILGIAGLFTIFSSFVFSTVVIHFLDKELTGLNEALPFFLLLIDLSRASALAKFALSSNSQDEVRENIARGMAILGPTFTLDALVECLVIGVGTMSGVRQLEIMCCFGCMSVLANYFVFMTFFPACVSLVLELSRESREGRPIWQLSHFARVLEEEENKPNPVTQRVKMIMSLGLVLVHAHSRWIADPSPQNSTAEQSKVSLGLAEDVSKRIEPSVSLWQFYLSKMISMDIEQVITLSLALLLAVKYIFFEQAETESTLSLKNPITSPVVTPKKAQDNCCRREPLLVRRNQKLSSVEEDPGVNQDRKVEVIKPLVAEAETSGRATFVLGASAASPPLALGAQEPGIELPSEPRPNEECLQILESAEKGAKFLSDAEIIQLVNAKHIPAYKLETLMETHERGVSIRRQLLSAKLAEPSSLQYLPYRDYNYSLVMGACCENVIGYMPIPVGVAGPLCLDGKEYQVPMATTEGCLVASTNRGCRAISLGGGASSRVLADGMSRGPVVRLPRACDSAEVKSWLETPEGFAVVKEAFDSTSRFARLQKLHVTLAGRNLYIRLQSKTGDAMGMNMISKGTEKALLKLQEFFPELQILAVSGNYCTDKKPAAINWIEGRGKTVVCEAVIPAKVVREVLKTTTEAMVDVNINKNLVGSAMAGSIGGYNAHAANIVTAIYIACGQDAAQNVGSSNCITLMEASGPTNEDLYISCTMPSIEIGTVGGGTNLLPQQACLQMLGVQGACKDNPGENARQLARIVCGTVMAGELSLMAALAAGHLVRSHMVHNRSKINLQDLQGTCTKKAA
Protocol: Test A. In Vitro Microsomal Assay of HMG-CoA Reductase Inhibition:
200 μl. aliquots (1.08-1.50 mg./ml.) of rat liver microsomal suspensions, freshly prepared from male Sprague-Dawley rats (150-225 g. body weight), in Buffer A with 10 mmol. dithiothreitol are incubated with 10 μl. of a solution of the test substance dissolved in dimethylacetamide and assayed for HMG-CoA reductase activity as described by Ackerman et al., J. Lipid Res. 18, 408-413 (1977), the concentration of the test substance in the assay system being 0.01-2,000 μmolar. In the assay the microsomes are the source of the HMG-CoA reductase enzyme which catalyzes the reduction of HMG-CoA to mevalonate. The assay employs a chloroform extraction to separate the product, [^14 C]-mevalonolactone, formed by the HMG-CoA reductase reaction from the substrate, [^14 C]HMG-CoA. [^3 H]mevalonolactone is added as an internal reference. Inhibition of HMG-CoA reductase is calculated from the decrease in specific activity [^14 C/^3 H]mevalonate) of test groups compared to controls.
IC50 is the concentration of the test substance in the assay system observed or calculated to produce a 50% inhibition of HMG-CoA reductase activity (Test A) or sterol biosynthesis (Test B).

[2] = test system: 3β-hydroxysterol synthesis; test: Test C: In Vivo Cholesterol Biosynthesis Inhibition Test; parameters: species or system rat (male Wistar Royal Hart); conditions: for ED50: Rattus norvegicus, read-out: ED50 (50% inhibition of 3β-hydroxysterol synthesis)
Protocol: Test C. In Vivo Cholesterol Biosynthesis Inhibition Test:
In vivo studies utilize male Wistar Royal Hart rats weighing 150±20 g. which have been kept for 7-10 days on an altered light cycle (6:30 A.M.-6.30 P.M. dark) housed two per cage and fed powdered Purina Rat Chow and water ad libitum. Three hours before the diurnal maximum of cholesterol synthesis at mid-dark, the rats are administered the test substances dissolved or as a suspension in 0.5% carboxymethylcellulose in a volume of 1 ml./100 g. body weight. Controls receive vehicle alone. One hour after receiving the test substance, the rats are injected intraperitoneally with about 25 μCi/100 g. body weight of sodium [1-^14 C]acetate 1-3 mCi/mmol. Two hours after mid-dark, blood samples are obtained under sodium hexobarbitol anesthesia, and the serum separated by centrifugation. (The dosage of the test substance is 0.01-200 mg./kg. body weight.)
The [^14 C]digitonides are then counted by liquid scintillation spectrometry. After correcting for efficiencies, the results are calculated in nCi (nanocuries) of sterol formed per 100 ml. of serum. Inhibition of sterol synthesis is calculated from the reduction in the nCi of sterols formed from test groups compared to controls.
The ED50 is the dose of the test substances observed or calculated to produce a 50% inhibition of 3β-hydroxysterol synthesis.

[3] = test system: sterol biosynthesis in Fu5AH rat hepatoma cell line; test: Test B: In Vitro Cell Culture Cholesterol Biosynthesis Screen; format: cell-based; conditions: Fu5AH rat hepatoma cells, [14C]acetate, 3 hours, read-out: IC50 (50% inhibition of sterol biosynthesis)
Protocol: Test B. In Vitro Cell Culture Cholesterol Biosynthesis Screen:
The cell culture is prepared as follows: Stock monolayer cultures of the Fu5AH rat hepatoma cell line (originally obtained from G. Rothblat; see Rothblat, Lipids 9, 526-535 (1974) are routinely maintained in Eagle's Minimum Essential Medium (EMEM) supplemented with 10% fetal bovine serum (FBS) in 75 cm^2. tissue culture flasks. For these studies, when the cultures reach confluence, they are removed by mild enzymatic treatment with 0.25% trypsin in Hank's balanced salt solution (without calcium and magnesium). After centrifugation of the cell suspension and aspiration of the enzymatic solution, the cell pellet is resuspended in an appropriate volume of media for seeding into 60 mm. tissue culture dishes. The cultures are incubated at 37° C. in an atmosphere of high humidity and 5% carbon dioxide. When the cultures are confluent (approximately 5 days), they are ready for use. The culture media is aspirated from the dishes and replaced with 3 ml. of EMEM supplemented with 5 mg./ml. of delipidized serum protein (DLSP) prepared by the method of Rothblat et al., In Vitro 12, 554-447 (1976). […] Enhanced 3-hydroxy-3-methylglutaryl Coenzyme A reductase (HMG-CoA reductase) activity is measurable in the cells in response to the lack of exogenous sterol. Following approximately 24 hours incubation at 37° C. in the DLSP supplemented media, the assay is initiated by the addition of 3 μCi of [^14 C]acetate and the test substances solubilized in dimethylsulfoxide (DMSO) or distilled water. Solvent controls and compactin-treated controls are always prepared. Triplicate 60 mm. tissue culture dishes are run for each group. After 3 hours incubation at 37° C., the cultures are examined microscopically using an inverted phase contrast microscope. Notations are made of any morphological changes which may have occurred in the cultures. The media is aspirated and the cell layer is gently washed twice with 0.9% sodium chloride solution (saline). The cell layer is then harvested in 3 ml. of 0.9% saline by gentle scraping with a rubber policeman and transferred to a clean glass tube with Teflon lined cap. The dishes are rinsed with 3 ml. of 0.9% saline and rescraped, and the cells are combined with the first harvest. The tubes are centrifuged at 1500 r.p.m. for 10 minutes in an IEC PR-J centrifuge, and the supernatant is aspirated.
The cells are then extracted as follows: One ml. of 100% ethanol is added to the cell pellet followed by sonication for 10 seconds with a "LO" setting of 50 on a Bronwell Biosonik IV. One hundred μl. are taken for protein determination. One ml. of 15% potassium hydroxide (KOH) is added, and the samples are thoroughly vortexed. Saponification is accomplished by heating the ethanol-KOH treated samples at 60° C. for 60 minutes in a water bath. Following dilution of the samples with 2 ml. of distilled water, they are extracted three times with 7 ml. of petroleum ether. The petroleum ether extracts are then washed three times with 2 ml. of distilled water and finally taken to dryness under a stream of nitrogen.
The obtained samples are then analyzed by thin layer chromatography (TLC) as follows: Residues from the petroleum ether extraction are taken up in a small volume of hexane and spotted on silica gel 60 TLC plates (E. Merck). Development of the plates is carried out in a three phase solvent system consisting of 150 parts by volume hexane: 50 parts by volume diethyl ether: 5 parts by volume glacial acetic acid. Visualization is accomplished in an iodine vapor chamber. The plates are divided into five sections such that each section contains the molecules having the following approximate Rf value: section 1-0-0.4, section 12-0.4-0.55, section 3-0.55-0.7, section 4-0.7-0.9 and section 5-0.9-1.0. Section 2 contains the non-saponifiable sterols. The five sections of the TLC plates are scraped into scintillation vials. […]

[4] = Test C, male Wistar Royal Hart rats

Compound	IC50 [1] [µM]	IC50 [3] [µM]	ED50 [2, 4] [mg/kg]	change in 3β-hydroxysterol synthesis ([2]; Test C, male Wistar Royal Hart rats, at 5.9 mg./kg.) [%]	ED50 [2] [mg/kg]
O=C1CC(O)CC(/C=C/[C@H]2CC=CC[C@@H]2c2ccccc2)O1 (stereo partly drawn) [Example 67B]	1370				
C[C@@H]1C=C[C@H](C)[C@@H](/C=C/C2CC(O)CC(=O)O2)[C@@H]1c1ccc(F)cc1 (stereo partly drawn) [Example 74]	116	5.8	20		
CC[C@H](C)C(=O)O[C@H]1CCC=C2C=C[C@H](C)[C@H](CC[C@@H]3C[C@@H](O)CC(=O)O3)[C@H]21 [Compactin, reference compound]	0.94	0.08	3.5		
C[C@@H]1C=C[C@H](C)[C@H](c2ccccc2)[C@H]1/C=C/C1CC(O)CC(=O)O1 (stereo partly drawn) [Example 79]	29	4.8		-62	
O=C1CC(O)CC(/C=C/[C@@H]2CC=CC[C@H]2c2ccc(Cl)cc2)O1 (stereo partly drawn) [Example 73]	450				
CC[C@H](C)C(=O)O[C@H]1C[C@@H](C)C=C2C=C[C@H](C)[C@H](CC[C@@H]3C[C@@H](O)CC(=O)O3)[C@H]21 [Mevinolin, reference compound]					0.41
C[C@@H]1C=C[C@H](C)[C@H](c2ccc(F)cc2)[C@H]1/C=C/C1CC(O)CC(=O)O1 (stereo partly drawn) [Example 3, (E)-6-[2'-(2"α,5"α-Dimethyl-6"α-(4'"-fluorophenyl)cyclohex-3"-en-1"βS-yl)ethenyl]-4-hydroxy-3,4,5,6-tetrahydro-2H-pyran-2-one]	8.13	1.2	2.4		

More lines, main results first:

IC50 [1] [µM]	IC50 [3] [µM]	Compound	ED50 [2, 4] [mg/kg]	change in 3β-hydroxysterol synthesis ([2]; Test C, male Wistar Royal Hart rats, at 5.9 mg./kg.) [%]	ED50 [2] [mg/kg]
7.2		C[C@@H]1CC[C@H](C)[C@H](c2ccc(F)cc2)[C@H]1CCC(O)CC(O)CC(=O)O (stereo partly drawn) [Example 85]			
5.57		CCOC(=O)CC(O)CC(O)/C=C/[C@@H]1[C@@H](c2cccc3ccccc23)[C@@H](C)C=C[C@H]1C (stereo partly drawn) [Example 6, Ethyl (E)-3,5-dihydroxy-7-(2'α,5'α-dimethyl-6'α-naphth-1"-ylcyclohex-3'-en-1'βS-yl)hept-6-enoate]			
0.54		C[C@@H]1C=C[C@H](C)[C@H](c2ccc(F)cc2)[C@H]1/C=C/[C@@H](O)C[C@@H](O)CC(=O)O [Example 5A, Sodium (E)-3R,5S-dihydroxy-7-[2'α,5'α-dimethyl-6'α-(4"-fluorophenyl)cyclohex-3'-en-1'βS-yl]hept-6-enoate]			
141	5.4	CCOC(=O)CC(O)CC(O)/C=C/[C@@H]1[C@@H](c2ccc(F)cc2)[C@H](C)CC[C@H]1C(C)C (stereo partly drawn) [Example 86]			
3.23		C[C@@H]1C=C[C@H](C)[C@H](c2ccc(F)cc2)[C@H]1/C=C/[C@@H]1C[C@@H](O)CC(=O)O1 [Example 3A, (E)-Trans-6S-[2'-(2"α,5"α-Dimethyl-6"α-(4'"-fluorophenyl)cyclohex-3"-en-1"βS-yl)ethenyl]-4R-hydroxy-3,4,5,6-tetrahydro-2H-pyran-2-one]			
1.19	0.6	C[C@@H]1C=C[C@H](C)[C@H](c2ccc(F)cc2)[C@H]1/C=C/C(O)CC(O)CC(=O)O (stereo partly drawn) [Example 5, Sodium (E)-3,5-dihydroxy-7-[2'α,5'α-dimethyl-6'α-(4"-fluorophenyl)cyclohex-3'-en-1'βS-yl]hept-6-enoate]	2.07		
